Each structure is given as a SMILES string.

The target in the experiment is T1, MAGL (recombinant wild-type) (Homo sapiens, UniProt Q99685).
T1 sequence (Q99685 1-303): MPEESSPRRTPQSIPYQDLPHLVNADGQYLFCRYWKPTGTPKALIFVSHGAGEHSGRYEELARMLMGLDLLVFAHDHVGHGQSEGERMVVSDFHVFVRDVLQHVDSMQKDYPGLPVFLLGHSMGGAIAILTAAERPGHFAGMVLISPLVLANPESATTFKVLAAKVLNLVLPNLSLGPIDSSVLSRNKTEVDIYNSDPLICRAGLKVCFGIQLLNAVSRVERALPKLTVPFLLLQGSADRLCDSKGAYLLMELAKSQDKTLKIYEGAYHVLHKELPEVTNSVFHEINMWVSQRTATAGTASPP
The experiment can be described thus: 4-NPA assay: MAGL inhibitory activity by hydrolysis of 4-nitrophenylacetate, absorbance at 405 nm. Type of experiment: biochemical. To be noted: 4-NPA assay (values without footnote [a]). The method, then:
Compounds were profiled for MAGL inhibitory activity by measuring the enzymatic activity of MAGL by following the hydrolysis of 4-nitorphenylacetate resulting in 4-nitrophenol, which absorbs at 405-412 nm (G. G. Muccioli, G. Labar, D M. Lambert, Chem. Bio. Chem. 2008, 9, 2704-2710). This assay is hereinafter abbreviated “4-NPA assay”.
The 4-NPA assay was carried out in 384 well assay plates (black with clear bottom, non-binding surface treated, Corning Ref. 3655) in a total volume of 40 μL. Compound dilutions were made in 100% DMSO (VWR Chemicals 23500.297) in a polypropylene plate in 3-fold dilution steps to give a final concentration range in the assay from 25 μM to 1.7 nM. 1 μL compound dilutions (100% DMSO) were added to 19 μL MAGL (recombinant wild-type) in assay buffer (50 mM TRIS (GIBCO, 15567-027), 1 mM EDTA (Fluka, 03690-100 ml)). The plate was shaked for 1 min at 2000 rpm (Variomag Teleshake) and then incubated for 15 min at RT. To start the reaction, 20 μL 4-Nitrophenlyacetate (Sigma N-8130) in assay buffer with 6% EtOH was added. The final concentrations in the assay were 1 nM MAGL and 300 μM 4-Nitrophenylacetate. After shaking (1 min, 2000 rpm) and 5 min incubation at RT, the absorbance at 405 nm was measured for a first time (Molecular Devices, SpectraMax Paradigm). A second measurement was then done after incubation for 80 min at RT. From the two measurements, the slope was calculated by substracting the first from the second measurement.
For `O=C1COc2ccc(C(=O)N3CCC(C(c4ccccc4)c4ccc(OCCOCCF)cc4)CC3)cc2N1` (single isomer, unassigned) [Example 97, 6-[4-[(R or S)-[4-[2-(2-Fluoroethoxy)ethoxy]phenyl]-phenyl-methyl]piperidine-1-carbonyl]-4H-1,4-benzoxazin-3-one], the IC50 is 7.4 nM.
With `O=C1COc2ccc(C(=O)N3CCC([C@@H](c4ccccc4)c4cccc(F)c4)CC3)cc2N1` [Example 74, 6-[4-[(S)-(3-fluorophenyl)-phenyl-methyl]piperidine-1-carbonyl]-4H-1,4-benzoxazin-3-one], the IC50 stood at 0.56 nM.
Take `COc1cccc([C@H](c2ccccc2)C2CCN(C(=O)c3ccc4c(c3)NC(=O)CO4)CC2)c1` (single isomer, unassigned) [Example 12]: the IC50 was found to be 0.4 nM.
`COc1ccc(C(c2ccncc2)C2CCN(C(=O)c3ccc4c(c3)NC(=O)CO4)CC2)cc1OC` (single isomer, unassigned) [Example 126, 6-[4-[(R or S)-(3,4-Dimethoxyphenyl)-(4-pyridyl)methyl]piperidine-1-carbonyl]-4H-1,4-benzoxazin-3-one]: the IC50 turned out to be 8.5 nM.
Under `O=C1COc2ccc(C(=O)N3CCC(C(c4ccc(F)cc4)c4cccc(F)n4)CC3)cc2N1` (single isomer, unassigned) [Example 119, 6-[4-[(R or S)-(4-Fluorophenyl)-(6-fluoro-2-pyridyl)methyl]piperidine-1-carbonyl]-4H-1,4-benzoxazin-3-one] stands 9.1 nM.
`O=C1COc2ccc(C(=O)N3CCC(C(c4ccc(F)cc4)c4ccnc(F)c4)CC3)cc2N1` (single isomer, unassigned) [Example 111, 6-[4-[(R or S)-(4-Fluorophenyl)-(2-fluoro-4-pyridyl)methyl]piperidine-1-carbonyl]-4H-1,4-benzoxazin-3-one]: the IC50 is 1.5 nM.
The figure for `COc1ccc(C(c2ccc(F)cc2)C2CCN(C(=O)c3ccc4c(c3)NC(=O)CO4)CC2)cc1OC` (single isomer, unassigned) [Example 104, 6-[4-[(S or R)-(3,4-Dimethoxyphenyl)-(4-fluorophenyl)methyl]piperidine-1-carbonyl]-4H-1,4-benzoxazin-3-one] is 0.3 nM.
For `O=C1COc2ccc(C(=O)N3CCC(c4c[nH]c5cc(Cl)ccc45)CC3)cc2N1` [Example 21, 6-[4-(6-chloro-1H-indol-3-yl)piperidine-1-carbonyl]-4H-1,4-benzoxazin-3-one], the IC50 was 14 nM.
The figure for `Cn1cc(C2CCN(C(=O)c3ccc4c(c3)NC(=O)CO4)CC2)c2cc(Cl)ccc21` [Example 29] is 1.7 nM.
Consider `Cn1cc(C2CCN(C(=O)c3ccc4c(c3)NC(=O)CO4)CC2)c2ccccc21` [Example 31, 6-[4-(1-methylindol-3-yl)piperidine-1-carbonyl]-4H-1,4-benzoxazin-3-one], for which the IC50 was found to be 28.9 nM.
The figure for `O=C1COc2ccc(C(=O)N3CCN(c4nsc5ccccc45)CC3)cc2N1` [Example 91, 6-[4-(1,2-benzothiazol-3-yl)piperazine-1-carbonyl]-4H-1,4-benzoxazin-3-one] is 2400 nM; for `O=C1COc2ccc(C(=O)N3CCC(C(c4ccccc4)c4cccc(F)n4)CC3)cc2N1` (single isomer, unassigned) [Example 98, 6-[4-[(S or R)-(6-Fluoro-2-pyridyl)-phenyl-methyl]piperidine-1-carbonyl]-4H-1,4-benzoxazin-3-one] it is 1.8 nM; for `O=C1COc2ccc(C(=O)N3CCN(c4cc(C(F)(F)F)ccn4)CC3)cc2N1` [Example 88, 6-[4-[4-(trifluoromethyl)-2-pyridyl]piperazine-1-carbonyl]-4H-1,4-benzoxazin-3-one] it is 1480 nM.
For the compound `O=C1COc2ccc(C(=O)N3CCC(c4c[nH]c5ccc(Cl)cc45)CC3)cc2N1` [Example 20, 6-[4-(5-chloro-1H-indol-3-yl)piperidine-1-carbonyl]-4H-1,4-benzoxazin-3-one], the IC50 amounted to 3.55 nM.
Under `O=C1COc2ccc(C(=O)N3CCC(c4c[nH]c5ncccc45)CC3)cc2N1` [Example 45, 6-[4-(1H-pyrrolo[2,3-b]pyridin-3-yl)piperidine-1-carbonyl]-4H-1,4-benzoxazin-3-one] stands 220 nM.
Under `O=C1COc2ccc(C(=O)N3CCN(C(c4ccc(F)cc4)c4ccc(F)cc4)CC3)cc2N1` [Example 84, 6-[4-[bis(4-fluorophenyl)methyl]piperazine-1-carbonyl]-4H-1,4-benzoxazin-3-one] stands 5.83 nM; under `O=C1COc2ccc(C(=O)N3CCN(c4ccc(C(F)(F)F)cn4)CC3)cc2N1` [Example 90, 6-[4-[5-(trifluoromethyl)-2-pyridyl]piperazine-1-carbonyl]-4H-1,4-benzoxazin-3-one], 2220 nM; under `O=C1CCc2c(cc(C(=O)N3CCC(C(c4ccccc4)c4ccccc4)CC3)cc2OCCF)N1` [Example 109, 7-(4-Benzhydrylpiperidine-1-carbonyl)-5-(2-fluoroethoxy)-3,4-dihydro-1H-quinolin-2-one], 6.2 nM.
Take `O=C1COc2ccc(C(=O)N3CCC(C(c4ccccc4)c4ccc(Cl)c(Cl)c4)CC3)cc2N1` (stereo not shown) [Example 4, 6-[4-[(3,4-Dichlorophenyl)-phenylmethyl]piperidine-1-carbonyl]-4H-1,4-benzoxazin-3-one]: the IC50 was found to be 0.69 nM.
Under `COc1cccc(C(c2ccc(F)cc2)C2CCN(C(=O)c3ccc4c(c3)NC(=O)CO4)CC2)c1` (single isomer, unassigned) [Example 121, 6-[4-[(S or R)-(4-Fluorophenyl)-(3-methoxyphenyl)methyl]piperidine-1-carbonyl]-4H-1,4-benzoxazin-3-one] stands 0.4 nM.
Take `O=C1COc2ccc(C(=O)N3CCC(c4c[nH]c5ccc(F)cc45)CC3)cc2N1` [Example 22, 6-[4-(5-fluoro-1H-indol-3-yl)piperidine-1-carbonyl]-4H-1,4-benzoxazin-3-one]: the IC50 was found to be 8.27 nM.
For `Cc1ccc([C@@H](c2ccccc2)C2CCN(C(=O)c3ccc4c(c3)NC(=O)CO4)CC2)cc1` (single isomer, unassigned) [Example 15], the half-maximal inhibitory concentration (IC50) was determined as 1.1 nM.
Regarding `COc1ccc([C@H](c2ccccc2)C2CCN(C(=O)c3ccc4c(c3)NC(=O)CO4)CC2)cc1OC` (single isomer, unassigned) [Example 8], the IC50 came to 4 nM.
As for `COc1ccc(C(c2ccc(F)cc2)C2CCN(C(=O)c3ccc4c(c3)NC(=O)CO4)CC2)cc1OC` (single isomer, unassigned) [Example 105, 6-[4-[(R or S)-(3,4-Dimethoxyphenyl)-(4-fluorophenyl)methyl]piperidine-1-carbonyl]-4H-1,4-benzoxazin-3-one], the IC50 is 0.8 nM.
In the case of `Cn1cc(C2CCN(C(=O)c3ccc4c(c3)NC(=O)CO4)CC2)c2ccc(Cl)cc21` [Example 30, 6-[4-(6-chloro-1-methylindol-3-yl)piperidine-1-carbonyl]-4H-1,4-benzoxazin-3-one], the IC50 came to 22.9 nM.
Take `CS(=O)(=O)c1cccc(C(c2ccccc2)C2CCN(C(=O)c3ccc4c(c3)NC(=O)CO4)CC2)c1` (single isomer, unassigned) [Example 129, 6-[4-[(R or S)-(3-Methylsulfonylphenyl)-phenyl-methyl]piperidine-1-carbonyl]-4H-1,4-benzoxazin-3-one]: the IC50 was 12.2 nM.
As for `O=C1COc2ccc(C(=O)N3CCC([C@H](c4ccccc4)c4ccc(F)cc4)CC3)cc2N1` (single isomer, unassigned) [Example 7], the IC50 amounted to 0.9 nM.
Under `COc1ccc2[nH]c(C)c(C3CCN(C(=O)c4ccc5c(c4)NC(=O)CO5)CC3)c2c1` [Example 41, 6-[4-(5-methoxy-2-methyl-1H-indol-3-yl)piperidine-1-carbonyl]-4H-1,4-benzoxazin-3-one] stands 440 nM.
`O=C1COc2ccc(C(=O)N3CCC(C4(c5ccc(Br)cc5)OCCO4)CC3)cc2N1` [Example 54, 6-[4-[2-(4-bromophenyl)-1,3-dioxolan-2-yl]piperidine-1-carbonyl]-4H-1,4-benzoxazin-3-one]: the IC50 stood at 7.3 nM.
Under `Cc1[nH]c2ccc(Cl)cc2c1C1CCN(C(=O)c2ccc3c(c2)NC(=O)CO3)CC1` [Example 47, 6-[4-(5-chloro-2-methyl-1H-indol-3-yl)piperidine-1-carbonyl]-4H-1,4-benzoxazin-3-one] stands 59 nM.
For `O=C1COc2ccc(C(=O)N3CCC(C(c4ccccc4)n4ccc5ccccc54)CC3)cc2N1` (stereo not shown) [Example 60, 6-[4-[indol-1-yl(phenyl)methyl]piperidine-1-carbonyl]-4H-1,4-benzoxazin-3-one], the IC50 was determined as 0.62 nM.

The record behind these values is US11420961B2, “Heterocyclic compounds” (Hoffmann-La Roche Inc., priority 2017, dated 2022).
